The text below walks through data of patent US20060025471A1, “Xanthenyl cubane analogs with activity at the metabotropic glutamate receptors” (priority 2002, published 2006).

Series [1] deals with rat global ischemia model. As to the kind of experiment: Rat global ischemia model. The series is classed as in vivo. The following applies: 1 mg/kg intra-peritoneal post ischemic insult. The source says: The neuroprotective effects of a candidate compound can also be evaluated in a number of in vivo animal models including, the rat global ischemia model. Briefly, two of the four cerebral arteries are permanently occluded and surgical silk is loosely placed around the remaining two cerebral arteries. Temporary tightening of the surgical silk leads to 4 vessel occlusion and temporary global ischemia. At various time points after ischemic insult the brain can be removed and examined for ischemic injury.
The neuroprotective effects of a thioxanthenyl cubane (Compound 6) were examined in vivo using the rat global ischemia model. Briefly, two of the four cerebral arteries are permanently occluded and surgical silk is loosely placed around the remaining two cerebral arteries. Temporary tightening of the surgical silk leads to 4 vessel occlusion and temporary global ischemia. Seven days post ischemic insult, the brain is removed and the CA1 region of the hippocampus, a region very suspectible to ischemic damage, is examined.

In a further series the test system is fear potentiated startle. As to the kind of experiment: Fear potentiated startle model. The series is classed as in vivo, rats. The source says:
The fear potentiated startle model permits measurement of learned fear of a stimulus that has been paired with repeated foot shocks. The effect of a candidate compound on fear potentiated startle can be compared with a known standard such as diazepam and a negative control (such as buffer only). The fear potentiated startle test can be conducted at various time points following administration of a candidate compound.
The anxiolytic properties of a thioxanthenyl cubane (Compound 6) were examined using the fear potentiated startle model. This model permits measurement of learned fear of a stimulus that has been paired with repeated foot shocks. The effect of Compound 6 on fear potentiated startle was compared with the known standard, diazepam. All tests were run 30 min after intraperitoneal drug administration. Compound 6 was administered at 1.0, 3.0, 10 and 15 mg/kg in rats.
The oral bioavailability and efficacy of a thioxanthenyl cubane (Compound 6) was studied using the fear potentiated startle model. Compound 6 was administered by gavage at a dose of 12 mg/kg. Following a 90 minute period allowed for drug absorption, the oral efficacy was examined using the fear potentiated startle model. As shown in FIG. 8 oral Compound 6 was effective in reducing the fear potentiated startle model.
The onset and duration of a thioxanthenyl cubane (Compound 6) was studied using the fear potentiated startle model. Thioxanthenyl cubane was administered by gavage at a dose of 15 mg/kg. The effect of oral Compound 6 on fear potentiated startle was examined at 30 minutes, 1, 2, 4, 6 and 8 hours post drug administration.

A further series has as its system fear induced freezing. As to the kind of experiment: Fear induced freezing model. The series is classed as in vivo, rat. The settings on record: diazepam at 3 mg/kg; for reduction in freezing, context alone: environment alone; for reduction in freezing, context plus tone: environment with conditioning sound. The source says:
The anxiolytic properties of a candidate compound can also be examined using the fear induced freezing model. Briefly, this test relies on the induction of a well known effect in rats when they are challenged. The rat is subjected to a mild shock associated with a sound which results in the animal becoming very still when expecting that shock. The effect of a candidate compound on fear induced freezing can be compared with a known standard such as diazepam and a negative control (such as buffer only). The fear induced freezing test can be conducted at various time points following administration of the candidate compound.
The anxiolytic properties of a thioxanthenyl cubane (Compound 6) were also examined using the fear induced freezing model. Briefly, this test relies on the induction of a well known effect in rats when they are challenged. The rat is subjected to a mild shock associated with a sound which results in the animal becoming very still when expecting that shock.
The animal is placed in its home cage for acclimatization before being placed back in the test environment in the presence or absence of test compound. The reduction in freezing is used as a measure of anxiolysis. […] The second paradigm (context plus tone) produces a larger and more difficult to overcome anxiety.

Series [2] deals with Cultured hippocampal pyramindal neurons. As to the kind of experiment: In vitro anoxia study, neuronal cell death. It is filed as cell-based. The settings on record: 30 minutes anoxia; counts 24 hours post anoxic exposure. The source says: The ability of a candidate compound to inhibit neuronal cell death can be examined using an in vitro anoxia study. […] A candidate compound can be administered to the neuronal cell culture at various time points prior to exposure to the anoxic condition to examine the prophylactic activity of the compound or during or after exposure to the anoxic condition to examine therapeutic activity of the compound. Suitable negative controls include, for example, buffer in place of the candidate compound.
The neuroprotective effects of a thioxanthenyl cubane (Compound 6) were examined using an in vitro anoxia study. Cultured hippocampal pyramindal neurons were exposed to anoxic conditions (oxygen free buffer) for 30 minutes. Twenty-four hours post anoxic exposure cell counts were conducted manually.

Series [3] can be described thus: Functional observational battery (side effect profile). The series is classed as in vivo. The source says: The side effect profile for an intra-peritoneally administered thioxanthenyl cubane (Compound 6) was examined and compared to diazepam using functional observational battery which is a series of observational markers designed to indicate level of impairment. The greater the functional observational battery score, the greater the impairment.

A further series relates to social interaction. In words: Social interaction studies. The series is classed as in vivo, rat. The method, then:
The effect of a candidate compound on social interaction can also be examined in rodents. Briefly, social interaction can be measured as follows: a strange intruder is introduced into the cage of an acclimatized treated rat and the number of times the rat either bites (# bites) or wrestles (# pins) the intruder is determined. The effect of a candidate compound on social interaction can be compared with a known standard such as diazepam and a negative control (such as buffer only). The social interaction test can be conducted at various time points following administration of the candidate compound.
The effect of a thioxanthenyl cubane (Compound 6) on social interaction was examined in rodents. Briefly, social interaction is measured as follows: a strange intruder is introduced into the cage of an acclimatized treated rat and the number of times the rat either bites (# bites) or wrestles (# pins) the intruder is determined. Compound 6 was administered at three doses and compared to saline and diazepam at 2 mg/kg.

A further series concerns focal ischemia model. In words: Starch microsphere infusion focal ischemia model. It is filed as in vivo, rat. As for the experimental part: Alternatively, the starch microsphere infusion focal ischemia model can be used. Briefly, starch microspheres are injected unilaterally into one of the carotid arteries. Blood flow is temporarily occluded on the injected side for approximately 30 minutes. Reperfusion occurs after the initial starch clot is resolved. At various time points after ischemic insult the brain can be removed and examined for ischemic injury.
The compounds of the present invention have been evaluated in a rat model of focal ischemia which is similar to that seen in strokes in humans. Briefly, starch microspheres are injected unilaterally into one of the carotid arteries. Blood flow is temporarily occluded on the injected side for approximately 30 minutes. Reperfusion occurs after the initial starch clot is resolved. The test compound is administered either prophylactically before vessel occlusion or therapeutically post vessel occlusion.
The neuroprotective effects of a thioxanthenyl cubane (Compound 6) were further examined using a starch microsphere infusion focal ischemia model. Briefly, starch microspheres are injected unilaterally into one of the carotid arteries. Blood flow is temporarily occluded on the injected side for approximately 30 minutes. Reperfusion occurs after the initial starch clot is resolved.
Compound 6 was intra-peritoneally administered at dosages of 0.1, 1.0, and 10 mg/kg either prophylactically or therapeutically. The prophylactic dose schedule included a dose of Compound 6 administered 30 minutes prior to ischemic insult followed by doses at 30 minutes and 3 hours post insult. For therapeutic administration, Compound 6 was administered 3 hours post insult only. […] In addition to providing substantial neuroprotection, Compound 6 reduced the incidence of seizures following ischemic insult in a dose-dependent manner.

For another series, the system named is elevated plus maze. In words: Elevated plus maze test. It is filed as in vivo, rat. The source says:
The anxiolytic properties of candidate compounds can be further evaluated using the elevated plus maze test. This test is dependent on the predisposition of rodents to remain in the dark and offers the choice between dark areas of the maze and the opportunity to explore lighted areas. The effect of a candidate compound on the elevated plus maze test can be compared with a known standard such as diazepam and a negative control (such as buffer only). The elevated maze plus test can be conducted at various time points following administration of the candidate compound.
To further examine the anxiolytic properties of a thioxanthenyl cubane (Compound 6), the elevated plus maze test was conducted. The elevated plus maze test is sensitive to benzodiazepine type anxiolytics while other anxiolytics such as the serotonin reuptake inhibitors (SSRIs) show poor efficacy in this test. This test is dependent on the predisposition of rodents to remain in the dark and offers the choice between dark areas of the maze and the opportunity to explore lighted areas.

Series [4] is described as follows: Asymmetric grid test (impairment of motor function). It is filed as in vivo. The following applies: 4 mg/kg; compared to the null experiment. As for the experimental part: To further examine the side effect of profile of Compound 6 the assymmetric grid test was conducted to measure impairment of motor function. Briefly, in the assymetric grid test the animal is placed on one side of a grid pattern, designed to challenge the animals motor function. On the other side of the grid is the animal's home cage or a reward. As the animal enters the grid it is monitored for mistakes by a camera placed horizontally in line with the grid. The camera records the number of forelimb and hindlimb intrusions through the grid and the higher the number, the greater the impairment.

In the case of `NC(CC1c2ccccc2Sc2ccccc21)(C(=O)O)C12C3C4C1C1C2C3C41C(=O)O` (stereo not shown) [Compound 6, 4-carboxycubane-1-thioxanthenyl-1-glycine], the “ischemic damage to the CA1 region of the hippocampus vs untreated ischemic animals” value in [1] (7 days) was “reduction in ischemic damage”. Besides, the “reduction in cell death” value in [1] (7 days after the procedure) was “greater than 50%”. Moreover, the “oral efficacy on fear potentiated startle” value in the series on fear potentiated startle (gavage 12 mg/kg, 90 minute absorption period) is reported as “effective”. In the series on fear potentiated startle (gavage 15 mg/kg), the “onset of effect on fear potentiated startle” value is 30 min, the “time of maximum effect on fear potentiated startle” value stood at 4 h and the “time of return of effect to base line” value is 8 h. In addition, the “effect on fear potentiated startle” value in the series on fear potentiated startle (intraperitoneal 1.0, 3.0, 10 and 15 mg/kg, 30 min after administration) is given as “dose dependent reduction”. For the same compound, the “effect on fear potentiated startle at the highest dose” value in the series with fear potentiated startle (intraperitoneal, highest dose (15 mg/kg)) is “tendency to reverse the effect”. Besides, in the series on fear potentiated startle (intraperitoneal, 30 min after administration), the “dose of apparent maximum reduction in fear potentiated startle” value is 3 mg/kg. Also, in the series with fear induced freezing, the “reduction in freezing, context alone” value is recorded as “effective in both scenarios” and the “reduction in freezing, context plus tone” value was “effective in both scenarios”. In [2], the “number of living cells in anoxic cultures relative to control anoxic cultures” value was in the range of 2 to 3 times. In addition, in series [3] (in vivo), the “impairment, functional observational battery score” value was “this level of impairment was not observed”. Moreover, in the series on social interaction (10 mg/kg), the “number of bites, compared with diazepam 2 mg/kg” value is recorded as “equal reduction” and the “number of pins, compared with diazepam 2 mg/kg” value was “equal reduction”. Further, the “neuroprotection in treated animals” value in the series on focal ischemia model (0.1, 1.0, 10 mg/kg intra-peritoneal, no obvious dose dependence) was “Neuroprotection was observed in all animals”. For the same compound, the “ischemic damage to the hippocampus, especially retrospenial and piriform cortices, vs untreated ischemic animals” value with focal ischemia model (0.1, 1.0, 10 mg/kg intra-peritoneal, prophylactic or therapeutic schedule) was “reduction in ischemic damage”. In the series with focal ischemia model (0.1-10 mg/kg intra-peritoneal, dose-dependent), the “incidence of seizures following ischemic insult” value is “reduced”. The “difference in neuronal cell number between ipsilateral and contralateral sides of the CA1 region” value with focal ischemia model (prophylactic or therapeutic treatment groups, 0.1, 1.0, 10 mg/kg) is on record as “no significant difference”. The “time spent in the exposed (open, light) area of the maze” value in the series on elevated plus maze (1 mg/kg) was “only a tendency”.
For `CN1C(=O)CN=C(c2ccccc2)c2cc(Cl)ccc21` [diazepam, reference compound], in series [4], the “number of forelimb and hindlimb mistakes” value is “increases significantly”. Moreover, the “effective oral dose level in fear potentiated startle” value in the series with fear potentiated startle (oral dose response (FIG. 9)) is recorded as 7 mg/kg. In the series with fear induced freezing, the “reduction in freezing, context alone” value was “effective” and the “reduction in freezing, context plus tone” value is recorded as “only effective in the less stringent first paradigm”. The “impairment, functional observational battery score” value in [3] (intra-peritoneal, high doses (Compound 6 very high doses)) is given as “large degree of impairment”. In addition, in the series with social interaction (2 mg/kg), the number of bites entry is reported as “clear reduction” and the number of pins entry is given as “clear reduction”. Besides, in the series on elevated plus maze (2 mg/kg), the “time spent in the exposed (open, light) area of the maze” value is on record as “clear increase”.
